Assay results published in PMC9818021, “Targets, Mechanisms and Cytotoxicity of Half-Sandwich Ir(III) Complexes Are Modulated by Structural Modifications on the Benzazole Ancillary Ligand” (Cancers, 2022).

Assays:
A549 cells [1] = experiment: ATP levels (Cell Titer-Glo); type: cell-based, human; conditions: 16 µM, 8 h incubation
Protocol: (§1) DNA damage was measured using EpiQuik 8-OHdG DNA Damage Quantification Direct Kit (colorimetric) (Fischer, Waltham, MA, USA, P600396); The mitochondrial cytochrome C release was evaluated using the “Millipore’s FlowCellect Cytochrome C Kit (Millipore, FCCH100110)”. Lactate dehydrogenase activity release was measured in the culture medium using Cytotoxicity Detection Kit (Roche Diagnostic, Barcelona, Spain, 11 644 793 001). Protein synthesis was determined using Click-iT Plus O-propargyl-puromycin (OPP) Protein Synthesis Assay Kit (Invitrogen™, Waltham, MA, USA). Measurement of GSH/GSSG was determined with GSH/GSSG-Glo Assay (Promega, V6611). Measurements of OCR and ECAR with Seahorse XFp (Agilent Technologies) were determined using the XFp Cell Mito Stress Test Kit (103010-100) and XFp Glycolysis Stress Test Kit (103017-100). ATP measurement was determined with Cell Titer-Glo Luminescent Cell Viability Assay (Promega, Madison, WI, USA, G7570). Determination of DNA damage using phosphorylated H2AX measurement were performed as previously described. Cardiolipin oxidation using the fluorophore Nonyl Acridine Orange (NAO, Thermo Scientific, A1372) was performed as described. Cell viability was determined by Hoechst inclusion and Propidium iodide (PI) exclusion by standard protocols. TEM analysis were performed as described. […]

A549 cells [2] = experiment: Seahorse XFp Cell Mito Stress Test (OCR); type: cell-based, human; conditions: 16 µM, A549, 1 h
Protocol: (§2) DNA damage was measured using EpiQuik 8-OHdG DNA Damage Quantification Direct Kit (colorimetric) (Fischer, Waltham, MA, USA, P600396); The mitochondrial cytochrome C release was evaluated using the “Millipore’s FlowCellect Cytochrome C Kit (Millipore, FCCH100110)”. Lactate dehydrogenase activity release was measured in the culture medium using Cytotoxicity Detection Kit (Roche Diagnostic, Barcelona, Spain, 11 644 793 001). Protein synthesis was determined using Click-iT Plus O-propargyl-puromycin (OPP) Protein Synthesis Assay Kit (Invitrogen™, Waltham, MA, USA). Measurement of GSH/GSSG was determined with GSH/GSSG-Glo Assay (Promega, V6611). Measurements of OCR and ECAR with Seahorse XFp (Agilent Technologies) were determined using the XFp Cell Mito Stress Test Kit (103010-100) and XFp Glycolysis Stress Test Kit (103017-100). ATP measurement was determined with Cell Titer-Glo Luminescent Cell Viability Assay (Promega, Madison, WI, USA, G7570). Determination of DNA damage using phosphorylated H2AX measurement were performed as previously described. Cardiolipin oxidation using the fluorophore Nonyl Acridine Orange (NAO, Thermo Scientific, A1372) was performed as described. Cell viability was determined by Hoechst inclusion and Propidium iodide (PI) exclusion by standard protocols. TEM analysis were performed as described. Cell cycle analysis by flow cytometry and microarrays analysis were performed as described. Arrays data have been deposited in the ArrayExpress database at EMBL-EBI (www.ebi.ac.uk/arrayexpress) under accession number E-MTAB-860 (10 November 2022)

A549 cells [3] = experiment: Cardiolipin oxidation (NAO, flow cytometry); type: cell-based, human; conditions: 4 h
Protocol: as §1

[4] = test system: gene expression (stress response, apoptosis, cell cycle genes); experiment: Microarray differential gene expression (Affymetrix Human Gene 2.1 ST); type: cell-based; conditions: vs. Control, 6 h after treatment
Protocol: as §2
Studies of the effect of 1[C,NH] on gene expression were performed and assessed 6 h after treatment, in a middle phase, when most cells were still alive (see S.I. Movie S2) but already with characteristic morphological features of apoptosis (Movie S1). Gene expression profiles of cells was determined by Affymetrix Human Gene 2.1 ST Array Plate in three independent experiments. In order to confirm the microarray data, we selected some genes involved in several key pathways: stress response, apoptosis and cell cycle to validate the changes in the expression by RT-qPCR. Results indicated a good correlation between microarray analysis and RT-qPCR. (Table S11). […] Note that not all genes are annotated with these databases. However, the negative regulation of metabolic process and negative regulation of macromolecule metabolic process are highly represented, and ~38% (84) of all genes could be classified in this way. […] The effect of 1[C,NH] on cell cycle progression was further assessed by flow cytometry. […] In summary, mRNA expression analysis is in good agreement with the elevation of ROS, oxidative stress response, cell cycle arrest and induction of apoptosis.

cytosolic Ca2+ = experiment: Cytosolic calcium (Fluo3/AM); type: cell-based; conditions: 16 µM, after 4 h of incubation
Protocol: Specific assays with 1[C,NH] complex were performed according to manufacturer’s instructions using the following reagents from Molecular Probes (Thermo Fisher Scientific): Measurements of ROS: Dihydroethidium (DHE, D11347) and 2′, 7′-dichlorodihydrofluorescein diacetate (H2DCFDA, D399); detection of caspases 3/7: CellEvent Caspase-3/7 Green Detection Reagent (C10423); Cell viability: Live/Dead Cell Imaging Kit (R37601); Analysis of cytosolic calcium concentration: Fluo3/AM (F23915); Analysis of MMP: Tetramethylrhodamine methyl ester perchlorate (TMRM, T668). RT-qPCR’s assays were performed with the following primers/probes from Thermo Fisher Scientific: DCP1A (Hs00218198-m1), FOSB (Hs00171851-m1), EGR1(Hs0015928-m1), ATF3 (Hs00231069-m1), DDIT3 (Hs00358796-g1), PP1R15A (Hs00169585-m1), CHAC1(Hs00225520-m1), MIR9-1 (Hs04231512-s1), ATP1B2 (Hs00155922-m1), BBC3 (Hs00248075-m1), BCL2L11 (Hs00798019-s1), PMAIP1 (Hs00560402-m1), SKP2 (Hs01021864-m1) and HIST1H1B (Hs00271207-s1). RT-qPCR experiments were performed as described.

A549 cells [5] = experiment: 8-OHdG DNA damage quantification; type: cell-based, human; conditions: 16 μM, 4 h
Protocol: as §1

A549 cells [6] = experiment: Protein synthesis (Click-iT OPP); type: cell-based, human; conditions: 16 µM, 6 h
Protocol: as §1

[7] = Stopped flow kinetics of DMSO substitution by OH-; type: physicochemical
Protocol: The slow kinetic measurements were performed with the previous spectrophotometer while the fast kinetic measurements were performed in a stopped flow Bio-Logic SFM-300 spectrophotometer with an absorbance detection system and dead time below 3 ms. The kinetic curves, obtained averaging out at least five shots, were analysed with the Jandel (AISN software, Mapleton, OR) fitting package.

## Cc1c(C)c(C)[c-](C)c1C.[Cl][Ir]1[c]2ccccc2-c2[nH]c3ccccc3[n+]21 [1[C,NH], [(η^5-Cp*)IrCl(κ^2-N,C-pbim)]]
A549 cells [1]
  Decrease on ATP levels: around 35%
A549 cells [2]
  ATP Production, OCR, Mean: 7.77 pmol/min
  Basal Respiration, OCR, Mean: 57.35 pmol/min
  Coupling Efficiency, Mean: 13.65
  Maximal Respiration, OCR, Mean: 47.24 pmol/min
  Non-Mitochondrial Oxygen Consumption, OCR, Mean: 26.35 pmol/min
  Proton Leak, OCR, Mean: 49.58 pmol/min
  Spare Respiratory Capacity as a %, Mean: 80.93%
  Spare Respiratory Capacity, OCR, Mean: 0.27 pmol/min
A549 cells [3]
  Cardiolipin oxidation: induced CL oxidation
[4]
  ATF3 Microarray (Fold Change (linear)): 37
  ATP1B2 Microarray (Fold Change (linear)): 34.8
  BBC3 Microarray (Fold Change (linear)): 3.3
  BCL2L11 Microarray (Fold Change (linear)): 5.1
  CHAC1 Microarray (Fold Change (linear)): 3
  DDIT3 Microarray (Fold Change (linear)): 23
  EGR1 Microarray (Fold Change (linear)): > 100
  FOSB Microarray (Fold Change (linear)): > 100
  HIST1H1B Microarray (Fold Change (linear)): -6.6
  MIR9-1 Microarray (Fold Change (linear)): 26.8
  PMAIP1 Microarray (Fold Change (linear)): 7.1
  PPP1R15A Microarray (Fold Change (linear)): 11
  SKP2 Microarray (Fold Change (linear)): -4.7
Cytosolic Ca2+
  Cytosolic Ca2+: increase in cytosolic Ca^2+
A549 cells [5]
  8-OHdG levels: increased after 4 h
A549 cells [6]
  Inhibition of total protein synthesis: around 60%

## Cc1c(C)c(C)[c-](C)c1C.[Cl][Ir]1[O]c2ccccc2-c2sc3ccccc3[n+]21 [8[CO,S], [(η^5-Cp*)IrCl(κ^2-O,N-hpbtz)]]
[7]; pH = 10.2
  k (substitution of DMSO by OH-): 39 s⁻¹
[7]; pH = 11.5
  k (substitution of DMSO by OH-): 112 s⁻¹
